Molecules are shown by their SMILES. Read-outs that look alike come from different tables or passages of the source.

The test system of data set [1] is Human immortalized sebocytes. The data set is described as follows: 14C-Acetate Sebocyte Lipid Accumulation Assay. The format is cell-based. As to conditions: day 2, 16 hour treatment with 1 μM T0901317, then 1 μM insulin for 4 hours. The protocol: This assay examines the ability of compounds to modulate the incorporation of label into de novo lipid synthesis. Cells were seeded in collagen 1-coated Scintiplates. Compounds were added in the presence of Liver X Receptor (LXR) agonist (T0901317) overnight. The medium was replaced with treatments and stimulated with 1 μM insulin for 4 hours in Labeling Medium containing 14C-acetate. Label incorporation was determined by washing the cells to removed excess label and allowing the cell layer to air dry before assessing labeling through Scintiplate counting normalized to Cell Titer Blue viability reagent.
Protocol—Day 1: Human immortalized sebocytes were seeded at 10,000 cells/well in a 96-well white, clear bottom collagen 1-coated Scintiplate in Sebocyte Growth Medium and allowed to attach overnight at 37° C. Day 2: Medium was refreshed by removing seeding medium and adding fresh Sebocyte Growth Medium. […] 3) Plates were read at Ex. 560 Em.590 with a cutoff of 570 nm for CTB signal. […] 5) 14C-acetate labeling was determined by scintillation counting in a MicroBeta TriLux Scintillation Counter.
Data analysis—Cell viability is presented as cell titer blue fluorescence reading (RFU) for each treatment. […] The percent of LXR agonist+Insulin-stimulated lipogenesis was calculated by taking the ratio of each CPM measure over the corresponding cell titer blue measure. […]

Data set [2] is described as follows: Toxicokinetic assessment of systemic exposure in minipigs following dermal administration. The settings on record: Göttingen, minipig, plasma, topical or ocular; for AUC(0-t): read-out: AUC0-24; for Tmax: Median (Min-Max). The format is in vivo. Here is the method:
Male and female göttingen minipigs were dosed daily for a period of 28 days in a GLP toxicity study with DMVT-503 gel at 0.1%, 0.3%, and 0.6%. DMVT-503 concentrations were quantitated using a validated LC-MS/MS method and toxicokinetic parameters were calculated for all dosing groups, sexes, and sampling occasions. The systemic exposures observed in this study are supportive of the effective delivery of DMVT-503 into and through minipig skin by the gel formulations tested. Table 10 presents the summary as mean±SD on Days 1 and 28 following daily dermal application of DMVT-503 gel formulations at 0.1%, 0.3%, and 0.6% (2, 6, and 12 mg/kg/day, respectively).

[3] abbreviates: female, 2 mg/kg/day, Day 1, Female, 2 mg/kg/day, 0.1% gel.
[4] abbreviates: female, 2 mg/kg/day, Day 28, Female, 2 mg/kg/day, 0.1% gel.
The mark [5] stands for this setting: female, 6 mg/kg/day, Day 1, Female, 6 mg/kg/day, 0.3% gel.
Setting [6] is: female, 6 mg/kg/day, Day 28, Female, 6 mg/kg/day, 0.3% gel.
Where [7] appears, read: female, 12 mg/kg/day, Day 1, Female, 12 mg/kg/day, 0.6% gel.
[8] abbreviates: female, 12 mg/kg/day, Day 28, Female, 12 mg/kg/day, 0.6% gel.
[9] abbreviates: male, 2 mg/kg/day, Day 1, Male, 2 mg/kg/day, 0.1% gel.
Setting [10] is: male, 2 mg/kg/day, Day 28, Male, 2 mg/kg/day, 0.1% gel.
Setting [11] is: male, 6 mg/kg/day, Day 1, Male, 6 mg/kg/day, 0.3% gel.
Setting [12] is: male, 6 mg/kg/day, Day 28, Male, 6 mg/kg/day, 0.3% gel.
The mark [13] stands for this setting: male, 12 mg/kg/day, Day 1, Male, 12 mg/kg/day, 0.6% gel.
Setting [14] is: male, 12 mg/kg/day, Day 28, Male, 12 mg/kg/day, 0.6% gel.

For orientation: IC50 means the midpoint of a concentration-inhibition curve. Broadly, the Cmax is the maximum level reached in the sampled fluid or tissue. As usually defined, the Tmax is the time at which the peak concentration occurs. In data set [1] (Homo sapiens), `Cc1nc(C)c(-c2ccc([C@H]3CC[C@H](CC(=O)O)CC3)cc2)nc1C(N)=O` [DMVT-503, 2-((1R,4R)-4-(4-(6-carbamoyl-3,5-dimethylpyrazin-2-yl)phenyl)cyclohexyl)acetic acid] came in with an IC50 of 49.6 nM. The Cmax in data set [2] (setting [3]) is 37.3 ng/mL; in data set [2] (setting [4]) it was 193 ng/mL; in data set [2] (setting [5]), 210 ng/mL; in data set [2] (setting [6]), 487 ng/mL; in data set [2] (setting [7]), 171 ng/mL; in data set [2] (setting [8]), 1370 ng/mL. Besides, the peak concentration (Cmax) in data set [2] (setting [9]) stood at 35.1 ng/mL; in data set [2] (setting [10]), 19.6 ng/mL; in data set [2] (setting [11]) it was 53 ng/mL; in data set [2] (setting [12]) it was 940 ng/mL; in data set [2] (setting [13]) it was 103 ng/mL; in data set [2] (setting [14]) it was 1160 ng/mL. The AUC(0-t) in data set [2] (setting [3]) was 323 ng·h/mL; in data set [2] (setting [4]) it was 3940 ng·h/mL; in data set [2] (setting [5]), 1750 ng·h/mL; in data set [2] (setting [6]) it was 8660 ng·h/mL; in data set [2] (setting [7]), 1490 ng·h/mL; in data set [2] (setting [8]), 25400 ng·h/mL. Besides, the AUC(0-t) in data set [2] (setting [9]) was determined as 307 ng·h/mL; in data set [2] (setting [10]) it was 3970 ng·h/mL; in data set [2] (setting [11]), 478 ng·h/mL; in data set [2] (setting [12]), 17500 ng·h/mL; in data set [2] (setting [13]), 10500 ng·h/mL; in data set [2] (setting [14]), 22300 ng·h/mL. Besides, the Tmax worked out at 24 h in data set [2] (setting [3]); 1 h in data set [2] (setting [4]); 24 h in data set [2] (setting [5]); 0 h in data set [2] (setting [6]); 24 h in data set [2] (setting [7]); 0 h in data set [2] (setting [8]). Moreover, the Tmax in data set [2] (setting [9]) worked out at 24 h; in data set [2] (setting [10]), 0 h; in data set [2] (setting [11]), 24 h; in data set [2] (setting [12]), 2 h; in data set [2] (setting [13]), 24 h; in data set [2] (setting [14]) it was 1 h.

In the case of `CC1=C(/C=C/C(C)=C/C=C/C(C)=C\C(=O)O)C(C)(C)CCC1` [Mix 13-cis-RA, 13-cis-retinoic Acid, reference compound], half-maximal inhibition in data set [1] (IC50) was put at 333 nM.

The values above are taken from US20210260055A1, “TOPICAL FORMULATIONS OF DGAT1 INHIBITORS AND THEIR METHODS OF USE” (Dermavant Sciences GmbH, priority 2018, published 2021).
